Measurements taken from US11945784B2, “IRE1 small molecule inhibitors” (Cornell University, priority 2018, dated 2024).

Assays:
IRE1α [1] = target: T1, IRE1α (Homo sapiens (Human), UniProt O75460); test: In vitro FRET assay; type: biochemical; conditions: XBP1 RNA probe
Method: In vitro FRET assay was performed to evaluate the ability of select compounds to inhibit IRE1, the results of which are summarized in Table 3. To perform the in vitro FRET assay, 1× complete assay buffer (CAB; […], 50 mM sodium citrate pH 7.15, 1 mM magnesium acetate, 0.02% tween 20) was used to dilute SignalChem IRE1α protein to a final concentration of 2 nM. Selected compounds were serially diluted with DMSO in a non-binding black 384-well plate for a total of 15 ul in each well. 2 ul of the serially diluted compound or DMSO control were then added to new wells containing 98 ul of 1×CAB, for a total volume of 100 ul, 10 ul of which were then transferred to wells of a new plate. 5 ul of the diluted IRE1α was then added to each well. 5 ul of a […] XBP1 RNA probe was then added to each well. Fluorescence was then read over 30 minutes in kinetic mode (485/515 nm).
Two RNA probes were used, XBP1 wildtype (SEQ ID NO: 2) which is able to be spliced by active IRE1α or XBP1 mutant (SEQ ID NO: 3) which is unable to be spliced. Each probe contained a 5′ 6-FAM modification and a 3′ IOWA Black FQ modification.
A second FRET assay was performed to assess ATP-mediated inhibition. In this case, compounds and IRE1α were prepared and combined as discussed above, with the addition of ATP up to 1 mM final concentration. This mixture was incubated at room temperature for 60 minutes and then 5 ul of 400 nM XBP1 wildtype or mutant RNA probe was added. Plates were then read over 30 minutes in kinetic mode (485/515 nm) and rate of fluorescence increase calculated for different compound dilutions to determine IC50 (Table 3).

IRE1α [2] = target: T1, IRE1α; test: In vitro luciferase assay (IRE1α Endoribonuclease Nanoluciferase Assay); type: cell-based; conditions: 293T cells, XBP1 luciferase reporter
Method: Compounds disclosed herein were assessed for disruption of IRE-1 signaling using a IRE1α Endoribonuclease Nanoluciferase Assay. Briefly, 2.5×10^6 293T cells were seeded in a 10 cm^2 tissue culture plate. About 24 hours later, the cells were transfected with Effectene. In a 15 mL Tube, the following was added: 2 μg XBP1 luciferase reporter plasmid (PGK-Luc2-P2A-XBP1u-Nanoluciferase-PEST); 300 μl EC buffer; and 16 μl Enhancer, followed by incubation at room temp for 5 minutes. Next, 60 μl Effectene (Qiagen 301427) was added, followed by incubation at room temperature for 10 minutes. 2.6 mL cDMEM media was added. Old media was aspirated from the cells, followed by addition of 7 mL fresh media. Full transfection mixture was added dropwise to cells. Cells were incubated for 6 hours, followed by trypsinization, centrifugation and resuspension in 11 mL media. 100 uL of cells were plated per a well in a 96 well plate. A day later, ER stressors of choice+/−inhibitors were added. To harvest, media was aspirated from cells completely, then 50 uL 1× passive lysis buffer (Promega: E1941) was added per well and put on shaker (300 rpm) for 30 minutes at room temperature. Cells were centrifuged, and 15 uL sample per well was added to a new, opaque white 384 well plate (Corning 3570). 15 uL OneGlo (nanoluciferase kit, Promega N1630) was added. Plates were spun down, placed on shaker (300 rpm) for 10 minutes. Plates were read on luminometer, 1000 ms integration time per well. 15 uL Stop and Glo (nanoluciferase kit) was added. Plates were spun down, placed on shaker (300 rpm) for 10 minutes. Plates were read on luminometer, 1000 ms second integration time per well. Recordings are provided below in Table 4

T1 sequence (O75460 19-977): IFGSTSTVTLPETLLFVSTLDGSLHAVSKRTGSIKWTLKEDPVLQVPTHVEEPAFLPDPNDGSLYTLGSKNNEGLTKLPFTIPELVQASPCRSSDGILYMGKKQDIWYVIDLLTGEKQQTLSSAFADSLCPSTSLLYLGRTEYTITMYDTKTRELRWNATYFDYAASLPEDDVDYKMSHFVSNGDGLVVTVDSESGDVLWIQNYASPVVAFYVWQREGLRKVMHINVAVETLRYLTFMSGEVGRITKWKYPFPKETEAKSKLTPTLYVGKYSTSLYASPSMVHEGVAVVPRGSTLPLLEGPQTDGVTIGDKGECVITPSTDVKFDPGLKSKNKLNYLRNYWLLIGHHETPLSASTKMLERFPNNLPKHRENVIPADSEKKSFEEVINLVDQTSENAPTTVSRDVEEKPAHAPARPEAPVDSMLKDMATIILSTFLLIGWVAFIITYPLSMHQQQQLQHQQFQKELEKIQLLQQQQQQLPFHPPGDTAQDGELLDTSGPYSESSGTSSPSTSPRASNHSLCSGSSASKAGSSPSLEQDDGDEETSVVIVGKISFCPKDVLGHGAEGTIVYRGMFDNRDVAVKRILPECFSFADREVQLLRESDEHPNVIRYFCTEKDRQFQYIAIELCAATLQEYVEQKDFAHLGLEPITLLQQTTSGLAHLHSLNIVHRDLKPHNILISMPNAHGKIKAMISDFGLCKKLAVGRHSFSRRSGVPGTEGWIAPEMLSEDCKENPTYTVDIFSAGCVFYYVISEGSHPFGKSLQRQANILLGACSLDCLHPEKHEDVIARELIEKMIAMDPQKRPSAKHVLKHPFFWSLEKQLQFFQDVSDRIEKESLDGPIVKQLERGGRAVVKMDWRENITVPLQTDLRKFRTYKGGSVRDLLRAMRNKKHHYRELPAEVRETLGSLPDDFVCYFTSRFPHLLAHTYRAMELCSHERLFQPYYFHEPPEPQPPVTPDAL

Compound | IC50 (IRE1α [1]) [nM] | EC50 (IRE1α [2]) [nM]
COc1cc(NS(=O)(=O)c2ccccc2Cl)ccc1CCc1cnc(NC2CCC(N)CC2)nc1 (stereo not shown) [Compound 15, N-(4-(2-(2-(((1r,4r)-4-aminocyclohexyl)amino)pyrimidin-5-yl)ethyl)-3-methoxyphenyl)-2-chlorobenzenesulfonamide] | ≤ 1 | 100 to 10000
CCN(CC)C1CCC(Nc2ncc(/C=C/c3ccc(NS(=O)(=O)c4ccccc4Cl)nc3C)cn2)CC1 (stereo not shown) [Compound 30, 2-chloro-N-(5-((E)-2-(2-(((1r,4r)-4-(diethylamino)cyclohexyl)amino)pyrimidin-5-yl)vinyl)-6-methylpyridin-2-yl)benzenesulfonamide] | ≤ 1 | ≤ 5
Cc1nc(NS(=O)(=O)c2ccccc2Cl)ccc1/C=C/c1cnc(NC2CCC(N)CC2)nc1 (stereo not shown) [Compound 46, N-(5-((E)-2-(2-(((1r,4r)-4-aminocyclohexyl)amino)pyrimidin-5-yl)vinyl)-6-methylpyridin-2-yl)-2-chlorobenzenesulfonamide] | ≤ 1 | 5 to 50
Cc1cc(NS(=O)(=O)c2ccccc2Cl)c(F)cc1/C=C/c1cnc(NC2CCC(N(C)C)CC2)nc1 (stereo not shown) [Compound 28, 2-chloro-N-(4-((E)-2-(2-(((1r,4r)-4-(dimethylamino)cyclohexyl)amino)pyrimidin-5-yl)vinyl)-2-fluoro-5-methylphenyl)benzenesulfonamide] | ≤ 1 | ≤ 5
Cc1nc(NS(=O)(=O)c2ccccc2Cl)ccc1/C=C/c1cnc(NC23CCC(N)(CC2)CC3)nc1 [Compound 49, (E)-N-(5-(2-(2-((4-aminobicyclo[2.2.2]octan-1-yl)amino)pyrimidin-5-yl)vinyl)-6-methylpyridin-2-yl)-2-chlorobenzenesulfonamide] | ≤ 1 | 100 to 10000
Cc1nc(NS(=O)(=O)c2cccc(F)c2Cl)ccc1/C=C/c1cnc(NC2CCC(N(C)C)CC2)nc1 (stereo not shown) [Compound 33, 2-chloro-N-(5-((E)-2-(2-(((1r,4r)-4-(dimethylamino)cyclohexyl)amino)pyrimidin-5-yl)vinyl)-6-methylpyridin-2-yl)-3-fluorobenzenesulfonamide] | ≤ 1 | ≤ 5
COc1nc(NS(=O)(=O)c2ccccc2Cl)c(F)cc1/C=C/c1cnc(NC2CCC(N(C)C)CC2)nc1 (stereo not shown) [Compound 50, 2-chloro-N-(5-((E)-2-(2-(((1r,4r)-4-(dimethylamino)cyclohexyl)amino)pyrimidin-5-yl)vinyl)-3-fluoro-6-methoxypyridin-2-yl)benzenesulfonamide] | ≤ 1 | 5 to 50
CCc1nc(NS(=O)(=O)c2cnccc2Cl)ccc1/C=C/c1cnc(NC2CCC(N(C)C)CC2)nc1 (stereo not shown) [Compound 42, 4-chloro-N-(5-((E)-2-(2-(((1r,4r)-4-(dimethylamino)cyclohexyl)amino)pyrimidin-5-yl)vinyl)-6-ethylpyridin-2-yl)pyridine-3-sulfonamide] | ≤ 1 | 5 to 50
COc1nc(NS(=O)(=O)c2ccc(F)cc2Cl)ccc1/C=C/c1cnc(NC2CCC(N(C)C)CC2)nc1 (stereo not shown) [Compound 32, 2-chloro-N-(5-((E)-2-(2-(((1r,4r)-4-(dimethylamino)cyclohexyl)amino)pyrimidin-5-yl)vinyl)-6-methoxypyridin-2-yl)-4-fluorobenzenesulfonamide] | ≤ 1 | ≤ 5
CCc1nc(NS(=O)(=O)c2ccccc2Cl)ccc1/C=C/c1cnc(NC2CCC(N(C)C)CC2)nc1 (stereo not shown) [Compound 29, 2-chloro-N-(5-((E)-2-(2-(((1r,4r)-4-(dimethylamino)cyclohexyl)amino)pyrimidin-5-yl)vinyl)-6-ethylpyridin-2-yl)benzenesulfonamide] | ≤ 1 | ≤ 5
Cc1cc(NS(=O)(=O)c2ccccc2Cl)ccc1/C=C/c1cnc(NC2CCC(N)CC2)nc1 (stereo not shown) [Compound 5, N-(4-((E)-2-(2-(((1r,4r)-4-aminocyclohexyl)amino)pyrimidin-5-yl)vinyl)-3-methylphenyl)-2-chlorobenzenesulfonamide] | ≤ 1 | ≤ 5
CN(C)C1CCC(Nc2ncc(/C=C/c3ccc(NS(=O)(=O)c4ccccc4Cl)c(F)c3)cn2)CC1 (stereo not shown) [Compound 35, 2-chloro-N-(4-((E)-2-(2-(((1r,4r)-4-(dimethylamino)cyclohexyl)amino)pyrimidin-5-yl)vinyl)-2-fluorophenyl)benzenesulfonamide] | ≤ 1 | 5 to 50
CNC1CCC(Nc2ncc(/C=C/c3ccc(NS(=O)(=O)c4ccccc4Cl)nc3OC)cn2)CC1 (stereo not shown) [Compound 48, 2-chloro-N-(6-methoxy-5-((E)-2-(2-(((1r,4r)-4-(methylamino)cyclohexyl)amino)pyrimidin-5-yl)vinyl)pyridin-2-yl)benzenesulfonamide] | ≤ 1 | ≤ 5
COc1nc(NS(=O)(=O)c2ccccc2Cl)ccc1CCc1cnc(NC2CCC(O)CC2)nc1 (stereo not shown) [Compound 12, 2-chloro-N-(5-(2-(2-(((1r,4r)-4-hydroxycyclohexyl)amino)pyrimidin-5-yl)ethyl)-6-methoxypyridin-2-yl)benzenesulfonamide] | 5 to 50 | –
CN(C)C1CCC(Nc2ncc(/C=C/c3cnc(NS(=O)(=O)c4ccccc4Cl)cn3)cn2)CC1 (stereo not shown) [Compound 37, 2-chloro-N-(5-((E)-2-(2-(((1r,4r)-4-(dimethylamino)cyclohexyl)amino)pyrimidin-5-yl)vinyl)pyrazin-2-yl)benzenesulfonamide] | ≤ 1 | 5 to 50
Cc1nc(NS(=O)(=O)c2ccccc2Cl)c(F)cc1/C=C/c1cnc(NC2CCC(N(C)C)CC2)nc1 (stereo not shown) [Compound 22, 2-chloro-N-(5-((E)-2-(2-(((1r,4r)-4-(dimethylamino)cyclohexyl)amino)pyrimidin-5-yl)vinyl)-3-fluoro-6-methylpyridin-2-yl)benzenesulfonamide] | ≤ 1 | ≤ 5
COc1nc(NS(=O)(=O)c2cccc(Cl)c2Cl)ccc1/C=C/c1cnc(NC2CCC(N(C)C)CC2)nc1 (stereo not shown) [Compound 51, 2,3-dichloro-N-(5-((E)-2-(2-(((1r,4r)-4-(dimethylamino)cyclohexyl)amino)pyrimidin-5-yl)vinyl)-6-methoxypyridin-2-yl)benzenesulfonamide] | ≤ 1 | ≤ 5
Cc1nc(NS(=O)(=O)c2ccccc2Cl)ccc1CCc1cnc(NC2CCC(O)CC2)nc1 (stereo not shown) [Compound 20, 2-chloro-N-(5-(2-(2-(((1r,4r)-4-hydroxycyclohexyl)amino)pyrimidin-5-yl)ethyl)-6-methylpyridin-2-yl)benzenesulfonamide] | 100 to 1000 | –
COc1nc(NS(=O)(=O)c2cccc(F)c2Cl)ccc1/C=C/c1cnc(NC2CCC(N(C)C)CC2)nc1 (single isomer, unassigned) [Compound 39, 2-chloro-N-(5-((E)-2-(2-(((1r,4r)-4-(dimethylamino)cyclohexyl)amino)pyrimidin-5-yl)vinyl)-6-methoxypyridin-2-yl)-3-fluorobenzenesulfonamide] | ≤ 1 | ≤ 5
CNC1CCC(Nc2ncc(C=Cc3ccc(NS(=O)(=O)c4ccccc4Cl)nc3C)cn2)CC1 (stereo not shown) [Compound 44, 2-chloro-N-(6-methyl-5-(2-(2-(((1r,4r)-4-(methylamino)cyclohexyl)amino)pyrimidin-5-yl)vinyl)pyridin-2-yl)benzenesulfonamide] | ≤ 1 | 5 to 50
Cc1nc(NS(=O)(=O)c2ccccc2Cl)ccc1CCc1cnc(NC2CCC(N(C)C)CC2)nc1 (stereo not shown) [Compound 21, 2-chloro-N-(5-(2-(2-(((1r,4r)-4-(dimethylamino)cyclohexyl)amino)pyrimidin-5-yl)ethyl)-6-methylpyridin-2-yl)benzenesulfonamide] | 1 to 5 | –
COc1nc(NS(=O)(=O)c2ccccc2Cl)ccc1CCc1ccc(NC2CCC(N)CC2)nc1 (stereo not shown) [Compound 13, N-(5-(2-(6-(((1r,4r)-4-aminocyclohexyl)amino)pyridin-3-yl)ethyl)-6-methoxypyridin-2-yl)-2-chlorobenzenesulfonamide] | 1 to 5 | –
